# Data: patent US20250250582A1, “Plant Cells and Plants Modified to Increase Herbicide Resistance and Stress Tolerance and Methods of Using the Same” (The Board of Trustees of the University of Arkansas, priority 2018, published 2025)
# Values joined by “and” are separate entries in the source; they are usually repeats but may differ in a detail not shown here. Equal entries are not always repeated.
# Tests used:
# [1] = tested on: susceptible E. colona (ECO-S); assay: RNA-sequencing differential gene expression, herbicide-treated vs nontreated ECO-S; details: ECO-S-T vs ECO-S-N, 24 h
# Source text: (§1) Pure-line generated seed of each accession were germinated in pots containing potting soil within a temperature/light controlled growth chamber set to a 14-hr day length, 33 C day temperature, and 24 C night time to simulate environmental conditions early in the rice growing season. A single plant was maintained in each of the pots and used for the treatments; two pots were used as individual biological replicates. […] Pots for each of the respective treatments were labeled as either ECO-R/S-T for the treated samples and ECO-R/S-N for the non-treated counterpart. To minimize the effect that the sprayer may play in the application, both plants of the ECO-R and ECO-S were treated at the same time. After approximately 30 minutes, allowing for the plants to dry, the treated and non-treated plants of both accessions were moved back into the growth chamber. Precisely 24-hours after application, the aboveground portion of each of the plants were removed and immediately frozen in liquid nitrogen to cease all biological function. Samples were then transferred to RNAlater™-ICE (Invitrogen, Carlsbad CA, USA) for shipment to the Clemson University Genomics Institute (CUGI), in Clemson, South Carolina.
# (§2) RNA was extracted from the young leaf tissues of both replications for the ECO-R and ECO-S, T and N samples, at Clemson University. Total RNA was extracted with a kit according to the manufactures instructions. The extracted RNA was treated with DNase (Invitrogen, Calsbad, CA, USA) to remove any DNA contamination prior to further processing. The samples were prepared for sequencing by CUGI. For library preparation, the TruSeq Stranded Total RNA kit (Illumina Inc., San Diego, CA, USA) was used according to the instructions provided by the manufacturer to produce a paired-end library for sequencing. Ribosomal RNA was removed using target-specific oligonucleotides paired with rRNA removal beads, removing all cytoplasmic and mitochondrial rRNA that may result in poor quality results. RNA was fragmented and reverse transcribed to cDNA using random primers, followed by a second strand cDNA synthesis. Each fragment is then ligated with an additional ‘A’ and an adapter for sequencing. The PCR enriched product is then used to create the final cDNA library. All samples were sequenced on an Illumina Hiseq 2500 platform housed in the Holdings Cancer Center at the Medical University of South Carolina, Charleston, SC, USA. Samples, regardless of treatments or replication were ran across three lanes to reduce sequencing errors from the equipment. The resulting data were processed by CUGI.
# (§3) A de novo transcriptome was assembled from the treatments described for this experiment as well as several treatments, which included herbicides profiled in ECO-R. The treatments were applied to both ECO-R and ECO-S samples with two replications as described previously. In total, 20 individual plants, from both the ECO-R and ECO-S accessions, as well as T and NT samples, were used for the assembly. The transcriptome was assembled using the Trinity RNA-Seq pipeline (Broad Institute, Cambridge, MA, USA). Raw data were assessed for quality using FastQC (Babraham Institute, Cambridge, UK) and then processed to remove adapter sequences and low quality bases using a sliding window method. The processed data were then rerun using FastQC to ensure high quality reads. Using the TrinityRNASeq 2.2.0 software, the samples were normalized, by replication, using a coverage size of 100 and kmer of 32. The normalized reads were then assembled as transcripts and genes using Trinity with the stranded library set as the default.
# [2] = tested on: multiple-resistant E. colona (ECO-R); assay: RNA-sequencing differential gene expression, herbicide-treated vs nontreated ECO-R; details: ECO-R-T vs ECO-R-N, 24 h
# Source text: as §1, §2, §3
# [3] = tested on: ECO-R compared to ECO-S after herbicide treatment; assay: RNA-sequencing differential gene expression, ECO-R-T compared to ECO-S-T; details: ECO-R-T vs ECO-S-T, 24 h
# Source text: as §1, §2, §3
# [4] = tested on: multiple-resistant E. colona (ECO-R); assay: Herbicide resistance profile of ECO-R; type: in vivo, Echinochloa colona; details: data not shown
# Source text: Beginning in 2010, through the 2016 cropping cycle, Echinochloa spp. from throughout the rice producing counties of Arkansas, USA, located along the Mississippi River were sampled for a survey of the current status of herbicide resistance. Seeds were bulk sampled from plants that had matured in rice and soybean production fields, which had survived at least one herbicide application, were collected and sent to the University of Arkansas Altheimer Laboratory in Fayetteville for characterization and evaluation of herbicide resistance to common rice herbicides. […] From this screening program, two populations of E. colona were selected for use in this experiment. […] To establish inbred and homozygous accessions for the experiment, a single plant, verified as resistant/susceptible of ECO-R and ECO-S were grown in isolation to produce seed for further experiments.
# Accession source and population profiling. From 2010 to 2016, the University of Arkansas weed physiology group has been collecting putative herbicide-resistant Echinochloa populations from rice production fields throughout the state of Arkansas. […] Collections took place in the late summer to early fall prior to rice harvest; these accessions were bulk sampled by in-field location and farm, with field histories collected when possible. All of the samples were submitted to the University of Arkansas Altheimer Laboratory for assessment of their resistance profile and characterized according to their species. […] Populations with unique profiles and of interest for further research were then grown in isolation to produce pureline seed. […] Another accession, E. colona susceptible (ECO-S), was also selected and grown in isolation. This accession was selected because of its similar cropping history and geographic location, as well as its high level of susceptibility to the herbicides of interest.
# [5] = tested on: resistant Echinochloa species; assay: Determination of resistance level (visual injury), resistant accessions; type: in vivo, E. colona and E. crus-galli; details: 2 X dose, visual 3 wk after treatment; propanil range excludes ECO187
# Source text: The experiment was repeated once.
# [6] = tested on: susceptible E. colona standard; assay: Determination of resistance level (visual injury), susceptible plants; details: 2 X dose, visual 3 wk after treatment
smiles,measurement,setting,value
O=C(O)c1c(Cl)ccc2cc(Cl)cnc12 [quinclorac],ABCB5 fold change,[1],−6.5 fold
same,ABCC10 fold change,[1],−6.1 fold
same,ACC oxidase 1 fold change (two forms),[1],2.2 fold and 2.8 fold
same,ACC oxidase fold change,[1],−2.8 fold
same,ACC oxidase homolog 3 fold change,[1],−2.2 fold
same,ACC synthase fold change,[1],−2.7 fold
same,"ALPL1 fold change, five repressed transcripts",[1],−12 to −1.4 fold
same,EIN2 fold change,[1],3.9 fold
same,RAP2-2 fold change,[1],1.9 fold
same,VP14 (9-cis-epoxycarotenoid dioxygenase) fold change,[1],−6.4 fold
same,"ALPL1 fold change, three induced transcripts",[1]; as much as,≤ 3.5 fold
same,ABCD2 fold change,[2],−9.2 fold
same,ACC synthase fold change,[2],6.3 fold
same,UGT73D1 fold change,[2],5.3 fold
same,UGT73E1 fold change,[2],2.6 fold
same,UGT75D1 fold change,[2],7.3 fold and ~9 fold
same,cytochrome c oxidase proteins fold change,[2],−8.4 fold
same,ATP synthase subunit(s) fold change,[2]; repressed,up to −12.3 fold
same,acetyl-CoA and acetyl-CoA 2 proteins fold change,[2]; repressed up to,up to −10.2 fold
same,pyruvate dehydrogenase subunits fold change,[2]; repressed up to,≤ −12 fold
same,ABA receptor PYL5 fold change,[3],−4.4 fold
same,ACC synthase fold change,[3],9 fold
same,Alanine aminotransferase 2 Fold Change,[3],4 fold
same,"Aspartate aminotransferase, chloroplastic Fold Change",[3],4 fold
same,"Beta-amylase 1, chloroplastic Fold Change",[3],4 fold
same,"Branched-chain-amino-acid aminotransferase 5, chloroplastic Fold Change",[3],4 fold
same,CYP71A1 Fold Change,[3],3 fold and 5 fold and 6 fold
same,CYP71A4 Fold Change,[3],5.6 fold and 6 fold
same,CYP71A8 Fold Change,[3],4 fold
same,CYP71A9 Fold Change,[3],−6 fold
same,CYP72A15 Fold Change,[3],−7 fold
same,CYP89A2 Fold Change,[3],−10 fold
same,CYP709B2 Fold Change,[3],6 fold and 7 fold and 11 fold
same,Desumoylating isopeptidase 1 Fold Change,[3],4 fold
same,"Fructose-bisphosphate aldolase, chloroplastic Fold Change",[3],4 fold
same,GSTU20 Fold Change,[3],6 fold
same,Haloacid dehalogenase-like hydrolase domain-containing protein 3 Fold Change,[3],4 fold
same,IAA-amino acid hydrolase ILR1-like 4 Fold Change,[3],−6 fold
same,"Nudix hydrolase 21, chloroplastic Fold Change",[3],3 fold and 4 fold
same,Probable xyloglucan endotransglucosylase/hydrolase protein 28 Fold Change,[3],−4 fold
same,Prolyl endopeptidase Fold Change,[3],8 fold and 9 fold and 15 fold
same,Pyrimidine-specific ribonucleoside hydrolase RihA Fold Change,[3],−9 fold
same,Serine carboxypeptidase-like 42 Fold Change,[3],−5 fold
same,UGT73D1 fold change,[3],8 fold
same,UGT73E1 fold change,[3],5 fold
same,UGT74D1 Fold Change,[3],−4 fold
same,UGT75D1 fold change,[3],8.7 fold and 9 fold
same,UGT88A1 Fold Change,[3],4 fold
same,level of resistance,[4],> 32 × field dose
same,injury of resistant Echinochloa species,[5],2-65%
same,susceptible plants killed,[6],100%
CP(=O)(O)CCC(N)C(=O)O (stereo not shown) [glufosinate],glutamine synthetase (one form) fold change,[2]; induced,7.5 fold
same,glutamine synthetase cytosolic isozyme 1-3 fold change,[2]; induced,8.2 fold
same,level of resistance,[4],~2 × field dose
C[C@@H](Oc1ccc(Oc2ccc(C#N)cc2F)cc1)C(=O)O [cyhalofop],level of resistance,[4],~2 × field dose
